Laboratory results reported in publication PMC1790702, “Non-Metabolic Membrane Tubulation and Permeability Induced by Bioactive Peptides” (PLoS ONE, 2007).
Read-outs that look alike come from different tables or passages of the source.

What was measured:
[1] = Membrane deformations on giant unilamellar vesicles, phase contrast video-microscopy
Description: Giant unilamellar vesicles (GUVs) were obtained by electroformation as described in [49]. Briefly, 1.5 µl of PC/PG (9/1, w/w) solution (0.4 mg/ml in chloroform/methanol 9/1) were spread on each platinum electrode. The lipid film was dried for half an hour under a gentle stream of nitrogen. The chamber was placed in an inverted microscope (Zeiss Axiovert 200M) and a thermocouple positioned to monitor the temperature (25°C). The electrodes were then completely hydrated with 2 ml of a low ionic strength buffer (HEPES 0.5 mM, pH 7.4 and conductivity 20 µS/cm). Immediately after buffer addition, a low frequency alternating field (5 Hz and 1 V) was applied on the electrodes for at least 2 hours. GUVs of diameter between 10 to 100 µm were observed. […] The observation temperature was 25°C.

[2] = Small angle X-ray scattering of multilamellar vesicles, electron density profiles; type: physicochemical; conditions: for S^−1 (repeat distance), Ld1 phase / S^−1 (repeat distance), Ld2 phase: 5 mM HEPES pH 7.4, 20°C; for dwater (thickness of the hydration layer), Ld2 phase: peptide-free 2.19; for dwater (thickness of the hydration layer), Ld1 phase: peptide-free 2.23; for dbilayer (thickness of the membrane bilayer), Ld1 phase: peptide-free 3.90; for Change of bilayer thickness, Ld1 phase / Change of membrane thickness, Ld2 phase: versus peptide-free PC/PG (9/1) MLVs, P/L 1/20 (w/w)
Description: Briefly, samples for SAXS examination were prepared by dissolving dry lipids in chloroform/methanol (2/1, vol/vol) and mixing to obtain the indicated proportions. The solvent was subsequently evaporated under a stream of oxygen-free dry nitrogen at 45°C and traces of solvent removed by a storage under high vacuum for 2 days. In order to obtain the Multiple Lamellar Vesicles (MLVs) the dry lipids were hydrated with an equal weight of buffer (5 mM HEPES pH 7.4). The aqueous lipid dispersion was thoroughly stirred to obtain a homogeneous dispersion, sealed under argon and kept until examination at 4°C. For X-ray measurements, lipid samples (∼20 µl) were deposited between two thin mica windows and mounted on a programmable thermal stage (Linkam, UK). The temperature was monitored by a thermocouple (Quad Service, Poissy, France) inserted directly into the lipid dispersion. Samples were exposed for 30 seconds to the beam (1.5 Å wavelength). The SAXS quadrant detector response was corrected for the uneven channel response using a static radioactive […] and S was calibrated for d-spacing using hydrated rat tail collagen. Information on the setup, calibration, and facilities are available on the station web site (http://www.srs.dl.ac.uk/ncd/station82/description.html).
The electron density profiles of lipid bilayers were obtained by Fourier synthesis of x-ray diffraction patterns. Integrated densities were derived from five diffraction orders (estimated spatial resolution <0.12 nm) by measuring the area under each diffraction peak separated and integrated using the software Peakfit (Seasolve).

[3] = LUV aggregation by turbidimetry; conditions: for P/L ratio at which LUV aggregation decreases: peak-like profile; for Peptide/lipid mass ratio (P/L) at which LUV aggregation starts: turbidity, absorbance at 340 nm, 10 µg LUVs in 500 µl HEPES 10 mM pH 7.4, 20 min after peptide addition; for Peptide/Lipid ratio at which LUVs are aggregated efficiently: discussion, from figure 5
Description: (§1) Large unilamellar vesicles (LUV) were prepared by extrusion through a polycarbonate filter (pore diameter 100 nm) in an extrusion device from Avestin as described in [38]. To obtain calcein loaded LUVs, at 2 mg/ml lipid concentration (PC/PG/ [^14C] PC 9/1/0.01 mol ratio), a solution in chloroform was dried under a gentle stream of nitrogen and maintained under vacuum for at least 2 h to ascertain removal of residual solvent. Then, the dried lipid film was hydrated with 1 ml of 70 mM calcein solution in HEPES 10 mM pH 7.4, vigorously vortexed and extruded. Free calcein was separated by passing the suspension trough two gel filtration columns in tandem (Econo-Pac 10 DG, Bio-Rad). The final lipid concentration was quantified measuring the [^14C] PC radiactivity with a liquid scintillation counter LS 6000 SC (Beckman Coulter France).
LUVs aggregation was monitored by turbidimetry (absorbance at 340 nm) in a Cary spectrophotometer (Varian) as described. Peptides were added to a 500 µl quartz cuvette containing 10 µg of LUVs in a HEPES 10 mM pH 7.4 buffer and the absorbance was followed during 20 min after peptide exposure. At this time, membrane aggregation attained the plateau.

[4] = Calcein leakage from LUVs; conditions: 25°C; for Calcein release: peptide/lipid ratio of 1/2, LUVs PC/PG/[14C]PC 9/1/0.01, 70 mM calcein, HEPES 10 mM pH 7.4, 5 min after peptide addition, fluorescence, relative to lysis with 1% Triton X-100
Description: as §1
The release of calcein after 5 minutes of peptide exposure to LUVs was measured by spectrofluorimetry (Varian eclipse) at excitation and emission wavelengths of 490 nm and 500–650 nm, respectively. […] Leakage was expressed as a percent relative of the total amount of dye released by LUVs lysis with 1% Triton X-100, according to equation: % release = 100×(F(t)−F0)/(FT−F0). F(t) is the fluorescence intensity at time t, F0 is the fluorescence intensity before peptide addition and FT the fluorescence intensity after LUVs lysis.

[5] = tested on: Annexin 2-GFP transfected MDCK cells; assay: Cell permeability, Ca2+ influx monitored by Annexin 2-GFP movement; type: cell-based; conditions: for Permeability towards ions at high peptide concentration: 100 µM peptide; for Permeability towards ions at high peptide concentration / Ca2+ influx and mobilization of annexin 2 from cytosol to the plasma membrane: Annexin 2-GFP MDCK cells; for Cell permeabilization: monitored by calcium permeability inducing annexin 2 movement in MDCK cells; for Ca2+ influx and mobilization of annexin 2 from cytosol to the plasma membrane: 10 µM peptide, in 10 minutes
Description: (§2) Annexin 2-GFP expression vector was a kind gift of Dr Stephen Moss (London UK). The annexin2-GFP transfected MDCK cloning will be published elsewhere. MDCK cells were cultured as described. Peptides were added at different concentrations and the annexin-GFP fluorescence was followed in a Zeiss inverted microscope. Films were acquired with Metamorph software. Cytotoxicity in CHO cells was evaluated using the CCK8 cell counting kit (Dojindo Laboratories). Briefly, cell suspension (100 µl, 1500 CHO cells per well) were seeded in DMEM plus 10 % FCS in 96-well microtiter plate at 37°C. 10 µl of peptides were added twice to the cells after 24 and 48 hours of cell culture to obtain concentrations of 1, 10, 20 and 50 µM and the toxicity was evaluated 48 after treatment.

CHO cells = assay: Cytotoxicity, CCK8 cell counting kit; type: cell-based; conditions: for Lethality: after 48 hours of incubation of CHO cells with 10 µM peptides, CCK8, DMEM plus 10 % FCS, 37°C
Description: as §2

[6] = Tryptophan fluorescence, membrane binding; conditions: excitation 280 nm, PC/PG (9/1) LUVs, 25°C
Description: Tryptophan fluorescence was measured following the recommendations described in [51]. Excitation wavelength was 280 nm, and emission spectrum was collected (290–600 nm). Excitation and emission slits were 6 nm and 5 nm respectively. A cross-oriented configuration of the polarizer (Expol = 90°, Empol = 0°) was used in order to reduce LUVs diffusion artefacts.

[7] = PC/PG (9/1) MLVs, peptide/lipid 1/20 (w/w)
[8] = PC/PG (9/1) MLVs, peptide/lipid 1/20 (w/w), 20°C
[9] = PC/PG (9/1) MLVs, peptide/lipid 1/20 (w/w), 20°C, peptide-free 3.62
[10] = turbidity at 340 nm, HEPES 10 mM pH 7.4, 20 min, 25°C

Substance | S^−1 (repeat distance), Ld1 phase [2, 7] | S^−1 (repeat distance), Ld2 phase [2, 7] | dwater (thickness of the hydration layer), Ld2 phase [2, 8] | dwater (thickness of the hydration layer), Ld1 phase [2, 8] | dbilayer (thickness of the membrane bilayer), Ld1 phase [2, 8] | Change of bilayer thickness, Ld1 phase ([2]; 20°C) | Calcein release [4] | Permeability towards ions at high peptide concentration [5] | Cell permeabilization [5] | Lethality (CHO cells) | dbilayer (thickness of the membrane bilayer), Ld2 phase [2, 9] | Change of membrane thickness, Ld2 phase ([2]; 20°C) | P/L ratio at which LUV aggregation decreases [3, 10] | Peptide/lipid mass ratio (P/L) at which LUV aggregation starts ([3]; 25°C) | Ca2+ influx and mobilization of annexin 2 from cytosol to the plasma membrane [5] | Peptide/Lipid ratio at which LUVs are aggregated efficiently [3] | P/L ratio of peptide-membrane saturation (maximal shift in emission wavelength) [6] | further results
RPKPQQFFGLM-NH2 [SP, Substance P, neuromodulator, primary amphipathic peptide, free N-terminal amino group, reference compound] | 5.96 nm | 5.75 nm | 2.21 nm | 2.34 nm | 3.62 nm | −2.8 Å | 8% | did not induce any increase in permeability towards ions | no | 0% | – | – | – | – | – | – | – | GUV morphology at high peptide concentration ([1]; after 6 hours of incubation, 50 µl of peptide solution at 0.5 mM in 2 ml of buffer): did not perturb GUVs morphology; dbilayer (thickness of the membrane bilayer), Ld2 phase [2]: 3.54 nm; LUV aggregation ([3]; turbidity at 340 nm, HEPES 10 mM pH 7.4, 25°C): does not aggregate LUVs
RRLRRLLRRLLRRLRR-Bi [RL16, secondary amphipathic polyarginine-leucine peptide with biotin (Bi) on N-terminus] | 6.20 nm | 6.01 nm | 2.26 nm | 2.27 nm | 3.93 nm | – | 38% | – | yes | 55% | 3.75 nm | +1.3 Å | 1/10 | around 1/25 | provoked the Ca^2+ influx | – | – | GUV integrity ([1]; GUVs PC/PG 9/1, 25°C): complete GUV destruction after few seconds; P/L ratio at which a significant calcein release from LUVs is induced ([4]; 5 min after peptide addition): 1/5; Cell toxicity (CHO cells; CHO cells, 48 hours of peptide incubation): the only toxic peptide
RRRRRRRRR-NH2 [R9, Polyarginine, cell-penetrating peptide, nine arginines, free N-terminal amino group, reference compound] | – | – | – | – | – | – | 8% | did not induce any increase in permeability towards ions | no | 0% | – | – | – | 1/80 | – | 1/50 | – | Time for growing micro-tubes to invade the entire vesicle internal volume ([1]; GUVs PC/PG 9/1, 25°C): less than 20 minutes; P/L ratio at the plateau of LUV aggregation [3, 10]: 1/45
RRWRRWWRRWWRRWRR-Bi [RW16, secondary amphipathic polyarginine-tryptophane peptide with biotin (Bi) on N-terminus] | 6.08 nm | 5.89 nm | 2.18 nm | 2.25 nm | 3.83 nm | – | 14% | – | yes | 0% | 3.71 nm | 0.9 Å | 1/10 | around 1/25 | provoked the Ca^2+ influx | – | 1/10 | –
RRWWRRWRR-NH2 [RW9, short secondary amphipathic polyarginine-tryptophane peptide, free N-terminal amino group] | 5.96 nm | 5.74 nm | 2.19 nm | 2.33 nm | 3.63 nm | −2.7 Å | 7% | did not induce any increase in permeability towards ions | no | 0% | 3.55 nm | – | 1/10 | 1/35 | – | 1/30 | 1/15 | –
